Measured values: patent US20050256037A1, “Antibacterial amide macrocyles” (Bayer HealthCare AG, priority 2003, published 2005)
Converted amounts (≈) assume the structure as drawn. Where a name gives a salt, the structure may show the parent alone. Read-outs that look alike come from different tables or passages of the source. Marks after values point to notes of the source that are not given here.

Columns and labels:
Assay type in all cases: cell-based
S. aureus T17 [1] = assay: MIC, liquid dilution test in minimal medium (96-well microtitre plate); settings: Staphylococcus aureus, T17, read-out: MIC S. aureus T17
Experimental: Determination of the Minimum Inhibitory Concentration (MIC)
The minimum inhibitory concentration (MIC) is the minimum concentration of an antibiotic with which the growth of a test microbe is inhibited over 18-24 h. The inhibitor concentration can in these cases be determined by standard microbiological methods (see, for example, The National Committee for Clinical Laboratory Standards. Methods for dilution antimicrobial susceptibility tests for bacteria that grow aerobically; approved standard-fifth edition. NCCLS document M7-A5 [ISBN 1-56238-394-9]. NCCLS, 940 West Valley Road, Suite 1400, Wayne, Pa. 19087-1898 USA, 2000). The MIC of the compounds of the invention is determined in the liquid dilution test on the 96-well microtitre plate scale. The bacterial microbes are cultivated in a minimal medium (18.5 mM Na2HPO4, 5.7 mM KH2PO4, 9.3 mM NH4Cl, 2.8 mM MgSO4, 17.1 mM NaCl, 0.033 μg/ml thiamine hydrochloride, 1.2 μg/ml nicotinic acid, 0.003 μg/ml biotin, 1% glucose, 25 μg/ml of each proteinogenic amino acid with the exception of phenylalanine; [H.-P. Kroll; unpublished]) with addition of 0.4% BH broth (test medium). In the case of Enterococcus faecium L4001, heat-inactivated fetal calf serum (FCS; GibcoBRL, Germany) is added to the test medium in a final concentration of 10%. Overnight cultures of the test microbes are diluted to an OD578 of 0.001 (to 0.01 in the case of enterococci) in fresh test medium, and incubated 1:1 with dilutions of the test substances (1:2 dilution steps) in test medium (200 μl final volume). The cultures are incubated at 37° C. for 18-24 hours; enterococci in the presence of 5% CO2.
The lowest substance concentration in each case at which bacterial growth was no longer visible is defined as the MIC. […] The compounds show a graded antibacterial effect against most of the test microbes.
The S. aureus strain T17 is isolated in vivo. CFW1 mice are infected intraperitoneally with 4×10^7 S. aureus 133 cells per mouse. 0.5 h after the infection, the animals are treated intravenously with 50 mg/kg biphenomycin B. The kidneys are removed from the surviving animals on day 3 after the infection. After homogenization of the organs, the homogenates are plated out as described for RN4220Bi^R on antibiotic-free and antibiotic-containing agar plates and incubated at 37° C. overnight. […] About 20 of these colonies are tested for the biphenomycin B MIC, and a colony with an MIC of >50 μM is selected for further cultivation, and the strain is referred to a T17.

E. faecium L4001 [2] = assay: MIC, alternative method: agar dilution test with 20% defibrinated horse blood; settings: Enterococcus faecium
Experimental: (§1) Alternative Method for Determining the Minimum Inhibitory Concentration (MIC)
(§2) The minimum inhibitory concentration (MIC) is the minimum concentration of an antibiotic with which the growth of a test microbe is inhibited over 18-24 h. The inhibitor concentration can be determined by standard microbiological methods using modified medium in an agar dilution test (see, for example, the National Committee for Clinical Laboratory Standards. Methods for dilution antimicrobial susceptibility tests for bacteria that grow aerobically; approved standard-fifth edition. NCCLS document M7-A5 [ISBN 1-56238-394-9]. NCCLS, 940 West Valley Road, Suite 1400, Wayne, Pa. 19087-1898 USA, 2000). The bacterial microbes are cultivated on 1.5% agar plates containing 20% defibrinated horse blood. The test microbes, which are incubated on Columbia blood agar plates (Becton-Dickinson) overnight, are diluted in PBS, adjusted to a microbe count of about 5×10^5 microbes/ml and placed as drops (1-3 μl) on test plates. The test substances contain various dilutions of the test substances (1:2 dilution stages). The cultures are incubated at 37° C. in the presence of 5% CO2 for 18-24 hours.
(§3) The lowest concentration of each substance at which no visible bacterial growth occurs is defined as the MIC and is reported in μg/ml.

S. aureus E33 = assay: as above; settings: Staphylococcus aureus
Experimental: as §1, §2, §3

S. aureus T17 [3] = assay: as above; settings: Staphylococcus aureus
Experimental: as §1, §2, §3

S. aureus 133 = assay: Rate of spontaneous resistance
Experimental: (§4) Determination of the Rates of Spontaneous Resistance to S. aureus
(§5) The spontaneous resistance rates for the compounds of the invention are determined as follows: the bacterial microbes are cultivated in 30 ml of a minimal medium (18.5 mM Na2HPO4, 5.7 mM KH2PO4, 9.3 mM NH4Cl, 2.8 mM MgSO4, 17.1 mM NaCl, 0.033 μg/ml thiamine hydrochloride, 1.2 μg/ml nicotinic acid, 0.003 μg/ml biotin, 1% glucose, 25 μg/ml of each proteinogenic amino acid with the addition of 0.4% BH broth) at 37° C. overnight, centrifuged at 6000×g for 10 min and resuspended in 2 ml of phosphate-buffered physiological NaCl solution (about 2×10^9 microbes/ml). […] The resulting colonies (cfu) are counted.

S. aureus RN4220Bi^R = assay: Rate of spontaneous resistance
Experimental: as §4, §5

S. aureus RN4220 = assay: Rate of spontaneous resistance
Experimental: as §4, §5

S. aureus T17 [4] = assay: Rate of spontaneous resistance; settings: 10 × MIC
Experimental: as §4, §5

S. pneumoniae G9a = assay: Rate of spontaneous resistance; settings: 5 × MIC; * = colonies with increased MIC (4-8-fold) were isolated
E. faecalis ICB 27159 = assay: Rate of spontaneous resistance; settings: * = colonies with increased MIC (4-8-fold) were isolated
E. faecium L4001 [5] = assay: Rate of spontaneous resistance
[6] = L4001, read-out: MIC E. faecium L4001
[7] = E33, read-out: MIC S. aureus E33
[8] = T17, read-out: MIC S. aureus T17

CN1C(=O)[C@H](C[C@@H](O)CN)NC(=O)[C@@H](N)Cc2cc(ccc2O)-c2ccc(O)c(c2)C[C@H]1C(=O)NCCN [Example 1, (8S,11S,14S)-14-amino-N-(2-aminoethyl)-11-[(2R)-3-amino-2-hydroxypropyl]-5,17-dihydroxy-9-methyl-10,13-dioxo-9,12-diazatricyclo[14.3.1.1.^2,6]henicosa-1(20),2(21),3,5,16,18-hexaene-8-carboxamide, trihydrochloride]
MIC (S. aureus T17 [1]): 3.1 µM | MIC (E. faecium L4001 [2]; [6]): 16 µg/mL | MIC (S. aureus E33; [7]): 4 µg/mL | MIC (S. aureus T17 [3]; [8]): 4 µg/mL | Rate of spontaneous resistance S. aureus 133 (S. aureus 133; 10 × MIC): <4 × 10^−8 | Rate of spontaneous resistance S. aureus RN4220Bi^R (S. aureus RN4220Bi^R; 10 × MIC): <6 × 10^−8 | Rate of spontaneous resistance S. aureus RN4220 (S. aureus RN4220; 10 × MIC): <6 × 10^−8 | Rate of spontaneous resistance S. aureus T17 (S. aureus T17 [4]): <4 × 10^−8

NCCC[C@@H]1NC(=O)[C@@H](N)Cc2cc(ccc2O)-c2ccc(O)c(c2)C[C@@H](C(=O)NCCN)NC1=O [Example 6, (8S,11S,14S)-14-amino-N-(2-aminoethyl)-11-(3-aminopropyl)-5,17-dihydroxy-10,1 3-dioxo-9,12-diazatricyclo[14.3.1.1^2,6]henicosa-1(20),2(21),3,5,16,18-hexaene-8-carboxamide]
MIC (S. aureus T17 [1]): 3.1 µM (≈ 1.55 µg/mL) | MIC (E. faecium L4001 [2]; [6]): 8 µg/mL (≈ 16 µM) | MIC (S. aureus E33; [7]): 0.5 µg/mL (≈ 1 µM) | MIC (S. aureus T17 [3]; [8]): 2 µg/mL (≈ 4.01 µM) | Rate of spontaneous resistance S. aureus 133 (S. aureus 133): <8 × 10^−9* | Rate of spontaneous resistance S. aureus 133 (S. aureus 133; 10 × MIC): <8 × 10^−9 | Rate of spontaneous resistance S. aureus RN4220Bi^R (S. aureus RN4220Bi^R): <8 × 10^−9* | Rate of spontaneous resistance S. aureus RN4220Bi^R (S. aureus RN4220Bi^R; 10 × MIC): <4 × 10^−9 | Rate of spontaneous resistance S. aureus RN4220 (S. aureus RN4220): <6 × 10^−9* | Rate of spontaneous resistance S. aureus RN4220 (S. aureus RN4220; 10 × MIC): <6 × 10^−9 | Rate of spontaneous resistance S. pneumoniae G9a (S. pneumoniae G9a): <4 × 10^−8* | Rate of spontaneous resistance E. faecalis ICB 27159 (E. faecalis ICB 27159; 5 × MIC): <4 × 10^−9* | Rate of spontaneous resistance E. faecalis ICB 27159 (E. faecalis ICB 27159; 10 × MIC): <4 × 10^−10* | Rate of spontaneous resistance E. faecium L4001 (E. faecium L4001 [5]; 5 × MIC): 4 × 10^−8 | Rate of spontaneous resistance E. faecium L4001 (E. faecium L4001 [5]; 10 × MIC): <4 × 10^−9

NC[C@H](O)C[C@@H]1NC(=O)[C@@H](N)Cc2cc(ccc2O)-c2ccc(O)c(c2)C[C@@H](C(=O)O)NC1=O [Example 20A, 14(S)-Amino-1(S)-(3-amino-2(R)-hydroxypropyl)-5,17-dihydroxy-10,13-dioxo-9,12-diazatricyclo[14.3.1.1^2,6]henicosa-1(19),2,4,6(21),16(20),17-hexaene-8(S)-carboxylic acid dihydrochloride, reference compound]
MIC (S. aureus T17 [1]): > 25 µM | MIC (E. faecium L4001 [2]; L4001, Table B, agar dilution, 20% defibrinated horse blood, read-out: MIC E. faecium L4001): 0.5 µg/mL | MIC (S. aureus E33; E33, Table B, agar dilution, 20% defibrinated horse blood, read-out: MIC S. aureus E33): < 0.03 µg/mL | MIC (S. aureus T17 [3]; T17, Table B, agar dilution, 20% defibrinated horse blood, read-out: MIC S. aureus T17): > 32 µg/mL | Rate of spontaneous resistance S. aureus 133 (S. aureus 133; 10 × MIC): <1.7 × 10^−6 | Rate of spontaneous resistance E. faecalis ICB 27159 (E. faecalis ICB 27159; 10 × MIC): 4.1 × 10^−6
